This note sets out measurements from ChEMBL document CHEMBL1201862, “PubChem BioAssay data set” (2004).

Some test systems named below: NCI-H23; KM12; Hs-578T; UO-31; OVCAR-8; OVCAR-4; ACHN; COLO 205; UACC-62; IGROV-1; CAKI-1; Malme-3M; OVCAR-5; SNB-19; HCT-116; HOP-92; DU-145; SF-295; NCI-H226; NCI-H522.
Common to all, as to assay: DTP human tumour cell line panel, 48 h

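In this assay, cells in 96-well plates receive the compound at five concentrations for 48 hours. Endpoints are linearly interpolated between the surrounding concentrations. GI50 = concentration required for 50% inhibition of growth.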 Calls of active or inactive are those of the source. Rule as the data show it: active = GI50 up to about 1.1 µM and inactive = higher.

By GI50 is commonly meant the concentration that inhibits growth by half. As to `OC1(c2ccc(Cl)cc2)c2c(c3ccccc3c3ccccc23)C2=NCCN21` (configuration not stated), the GI50 in the assay with NCI-H23 is 11.6 µM (inactive); in the assay with KM12, 16.7 µM (inactive); in the assay with Hs-578T, 4.58 µM (inactive); in the assay with UO-31, 10.7 µM (inactive); in the assay on OVCAR-8, 11.9 µM (inactive); in the assay on OVCAR-4, 3.43 µM (inactive). Also, the GI50 in the assay on ACHN was 14.5 µM (inactive); in the assay with COLO 205, 28.2 µM (inactive); in the assay on UACC-62, 15.9 µM (inactive); in the assay on IGROV-1 it was 3.96 µM (inactive); in the assay with CAKI-1, 19.4 µM (inactive); in the assay on Malme-3M, 16.5 µM (inactive). Further, the GI50 with OVCAR-5 was 17 µM (inactive); in the assay with SNB-19 it was 13.6 µM (inactive); in the assay on HCT-116, 10.9 µM (inactive); in the assay on HOP-92, 16.6 µM (inactive); in the assay on DU-145 it was 17.4 µM (inactive); with SF-295, 11.5 µM (inactive).
In the case of `CCOC(=O)C(COS(C)(=O)=O)(COS(C)(=O)=O)C(=O)OCC`, the GI50 in the assay with NCI-H23, in the assay with KM12, with Hs-578T, with UO-31, in the assay on OVCAR-8 and in the assay on OVCAR-4 was > 100 µM (inactive) throughout. Also, the GI50 with ACHN, with COLO 205, in the assay on SNB-19, in the assay on NCI-H226, with HCT-116 and with NCI-H522 was > 100 µM (inactive) throughout. Also, the GI50 in the assay on HOP-92, in the assay with DU-145 and with SF-295 was > 100 µM (inactive) each time.
As for `O=[N+]([O-])c1cc(Cl)c(Cl)cc1[N+](=O)[O-]`, the GI50 in the assay on NCI-H23 is 2.14 µM (inactive); with KM12 it was 3.27 µM (inactive); with Hs-578T it was 13.9 µM (inactive); with UO-31, 1.93 µM (inactive); in the assay with OVCAR-8, 2.91 µM (inactive); with OVCAR-4, 2.48 µM (inactive). Further, the GI50 is 2.56 µM (inactive) with ACHN; 5.77 µM (inactive) in the assay on COLO 205; 2.23 µM (inactive) with UACC-62; 1.98 µM (inactive) with IGROV-1; 2.34 µM (inactive) in the assay on CAKI-1; 2.74 µM (inactive) in the assay on Malme-3M. The GI50 with OVCAR-5 is 2.51 µM (inactive); in the assay on NCI-H226, 3.89 µM (inactive); with HCT-116, 20.1 µM (inactive); in the assay with NCI-H522, 1.87 µM (inactive); with DU-145, 2.07 µM (inactive); with SF-295, 3.08 µM (inactive).
`O=C(/C=C/c1ccc2c(c1)OCO2)CC(=O)/C=C/c1ccc2c(c1)OCO2`: the GI50 in the assay on NCI-H23 is 19.6 µM (inactive); in the assay with KM12, 3.56 µM (inactive); in the assay on Hs-578T, 57.9 µM (inactive); in the assay on UO-31, > 100 µM (inactive); with OVCAR-4 it was 19.1 µM (inactive); in the assay with ACHN it was 84.3 µM (inactive). In addition, the GI50 in the assay with COLO 205 is > 100 µM (inactive); in the assay on UACC-62, > 100 µM (inactive); in the assay on IGROV-1, 23.5 µM (inactive); with CAKI-1 it was > 100 µM (inactive); in the assay on Malme-3M it was > 100 µM (inactive); with OVCAR-5 it was > 100 µM (inactive). The GI50 with SNB-19 was 92.7 µM (inactive); in the assay with NCI-H226 it was > 100 µM (inactive); in the assay with HCT-116, 37.5 µM (inactive); in the assay with NCI-H522, 45 µM (inactive); in the assay on DU-145 it was > 10 µM (inactive); in the assay on SF-295, > 100 µM (inactive).
In the case of `COc1ccc(CCNC(=O)CCc2ccccc2CO)cc1OC`, the GI50 in the assay on NCI-H23, with KM12, in the assay with Hs-578T, in the assay on UO-31, in the assay with OVCAR-8 and in the assay with OVCAR-4 was > 100 µM (inactive) each time. The GI50 in the assay on ACHN, in the assay on COLO 205, in the assay on UACC-62, in the assay on IGROV-1, in the assay with CAKI-1 and in the assay with OVCAR-5 was > 100 µM (inactive) each time. The GI50 with SNB-19, in the assay with NCI-H226, in the assay on HCT-116, in the assay with NCI-H522, with HOP-92 and in the assay on DU-145 was > 100 µM (inactive) in each case. Also, the GI50 with SF-295 is > 100 µM (inactive).
As to `CC(=O)O[C@H]1CC[C@@]2(C)C(=CC[C@@H]3[C@@H]2CC[C@]2(C)Nc4c(cnn4S(C)(=O)=O)C[C@@H]32)C1`, the GI50 was 42.5 µM (inactive) in the assay on NCI-H23; 52.8 µM (inactive) in the assay on KM12; 62.4 µM (inactive) with Hs-578T; 76.7 µM (inactive) in the assay on UO-31; > 100 µM (inactive) in the assay on OVCAR-8; 69 µM (inactive) in the assay with COLO 205. In addition, the GI50 was 47.3 µM (inactive) in the assay with UACC-62; 97.1 µM (inactive) with IGROV-1; 49.9 µM (inactive) with CAKI-1; > 100 µM (inactive) in the assay with Malme-3M; 38.2 µM (inactive) in the assay on OVCAR-5; > 100 µM (inactive) in the assay on SNB-19. Further, the GI50 in the assay on NCI-H226 was 35.2 µM (inactive); in the assay with NCI-H522, 41.1 µM (inactive); in the assay with HOP-92, 71.3 µM (inactive); with DU-145 it was 49.5 µM (inactive); with SF-295 it was 62.2 µM (inactive).
As to `S=C(N/N=C/c1ccccn1)N1CC2CCC(CC2)C1`, the GI50 in the assay on NCI-H23 was < 0.01 µM (active); in the assay on KM12, < 0.01 µM (active); with Hs-578T it was 0.299 µM (active); in the assay on UO-31, < 0.0111 µM (active); with OVCAR-8, < 0.01 µM (active); with OVCAR-4 it was 0.0308 µM (active). In addition, the GI50 is < 0.01 µM (active) in the assay on ACHN; < 0.01 µM (active) in the assay with COLO 205; < 0.0365 µM (active) in the assay with UACC-62; < 0.01 µM (active) with IGROV-1; < 0.01 µM (active) in the assay with CAKI-1; < 0.047 µM (active) in the assay on Malme-3M. Further, the GI50 with OVCAR-5 is < 0.024 µM (active); in the assay with SNB-19, 0.161 µM (active); with HCT-116 it was < 0.01 µM (active); in the assay on NCI-H522 it was < 0.01 µM (active); with HOP-92, 0.0568 µM (active); with DU-145, 0.0471 µM (active). For the same compound, the GI50 in the assay with SF-295 was < 0.0128 µM (active).
For the compound `COC(=O)C1c2c(c3ccccc3n2C(=O)OC)CCN2CCC1C(S(=O)(=O)c1ccccc1)C2=O` (configuration not stated), the GI50 in the assay with NCI-H23, with KM12, in the assay on Hs-578T, with UO-31, in the assay with OVCAR-8 and with COLO 205 was > 100 µM (inactive) in each case. Moreover, the GI50 is > 100 µM (inactive) in the assay with UACC-62; > 100 µM (inactive) with IGROV-1; > 100 µM (inactive) in the assay on CAKI-1; > 100 µM (inactive) in the assay on Malme-3M; > 100 µM (inactive) in the assay on OVCAR-5; 94.6 µM (inactive) with SNB-19. Besides, the GI50 in the assay with NCI-H226 was 24 µM (inactive); in the assay on HCT-116 it was > 100 µM (inactive); with NCI-H522, 89.3 µM (inactive); in the assay with HOP-92 it was > 100 µM (inactive); with DU-145, > 100 µM (inactive); in the assay on SF-295, > 100 µM (inactive).
As to `COC(=O)/C=C1\SC2(O\C1=N/c1ccccc1)C1CC3CC(C1)CC2C3` (configuration not stated), the GI50 was > 100 µM (inactive) in the assay on KM12; > 100 µM (inactive) in the assay with Hs-578T; > 100 µM (inactive) in the assay on UO-31; > 100 µM (inactive) with OVCAR-8; 36.1 µM (inactive) in the assay with OVCAR-4; > 100 µM (inactive) in the assay with ACHN. Moreover, the GI50 in the assay with UACC-62, in the assay with IGROV-1, in the assay with CAKI-1, with OVCAR-5, in the assay on SNB-19 and in the assay with NCI-H226 was > 100 µM (inactive) throughout. In addition, the GI50 in the assay on HCT-116 is > 100 µM (inactive); in the assay on NCI-H522, > 100 µM (inactive); in the assay with HOP-92, > 100 µM (inactive); in the assay with DU-145, > 10 µM (inactive); with SF-295, > 100 µM (inactive).
As to `O=c1cnn(C/C=C/CO)c(=O)[nH]1`, the GI50 in the assay on NCI-H23, in the assay on KM12, in the assay on Hs-578T, with UO-31, in the assay with OVCAR-8 and with ACHN was > 100 µM (inactive) in each case. In addition, the GI50 in the assay on COLO 205, with IGROV-1, with CAKI-1, with Malme-3M, in the assay with OVCAR-5 and in the assay with SNB-19 was > 100 µM (inactive) each time. For the same compound, the GI50 with NCI-H226, in the assay on NCI-H522, in the assay on HOP-92 and with DU-145 was > 100 µM (inactive) each time.
Take `COC(=O)C(Cc1cn(C(C)n2cc(CC(NC(C)=O)C(=O)OC)c3ccccc32)c2ccccc12)NC(C)=O` (configuration not stated): the GI50 in the assay with NCI-H23 was > 100 µM (inactive); with KM12 it was 32.1 µM (inactive); with Hs-578T, 12.5 µM (inactive); in the assay on UO-31, 66.4 µM (inactive); with OVCAR-4 it was > 100 µM (inactive); in the assay on COLO 205, > 100 µM (inactive). In addition, the GI50 was 98.2 µM (inactive) in the assay on UACC-62; 12.9 µM (inactive) in the assay with IGROV-1; > 100 µM (inactive) with CAKI-1; 13.7 µM (inactive) in the assay with Malme-3M; > 100 µM (inactive) in the assay with OVCAR-5; > 100 µM (inactive) with SNB-19. In addition, the GI50 is > 100 µM (inactive) in the assay on HCT-116; 12.2 µM (inactive) with NCI-H522; 52.5 µM (inactive) in the assay on HOP-92; > 100 µM (inactive) in the assay on DU-145; 60.7 µM (inactive) in the assay on SF-295.
